Laboratory results taken from publication PMC9747527 (Biochemistry and Biophysics Reports, 2022).
Values joined by “and” are separate entries in the source; they are usually repeats but may differ in a detail not shown here. Identical values can stand only once.

Columns and labels:
[1] = cited from earlier work
[2] = Biodistribution of DRV administered via intravenous; type: in vivo; details: Balb/c mice; for DRV accumulation cumulatively in the brain / DRV uptake cumulative in liver / DRV uptake cumulative in plasma / DRV accumulation cumulatively for all time points in plasma / DRV accumulation cumulatively for all time points in the brain / DRV concentration in liver (cumulative): cumulative 1, 3, 6, 12 h, mean ± S.E.M.; for concentration at 1 h: both, Balb/c, mouse, brain, other: intranasal (IN), DRV concentration in brain (Mean)

Row | SMILES | Brain to plasma ratio, IN compared to IV administration [1] | Increase of DRV accumulation in the brain, IN compared to IV delivery ([2]; 2.5 mg/kg, 1 h, p ≤ 0.05) | Increase of DRV accumulation in the brain, IN compared to IV delivery ([2]; 2.5 mg/kg, 3 h, p ≤ 0.05) | DRV accumulation cumulatively in the brain ([2]; 2.5 mg/kg, IN) | DRV uptake cumulative in liver ([2]; 2.5 mg/kg, IN) | DRV uptake cumulative in plasma ([2]; 2.5 mg/kg, IN) | DRV accumulation cumulatively in the brain ([2]; 2.5 mg/kg, IV) | DRV uptake cumulative in liver ([2]; 2.5 mg/kg, IV) | DRV uptake cumulative in plasma ([2]; 2.5 mg/kg, IV) | Lung DRV concentration, IN compared to IV ([2]; 2.5 mg/kg, individual or cumulative time points) | Increase of DRV accumulation in the brain, IN compared to IV delivery ([2]; 25 mg/kg, 1 h, p ≤ 0.001) | DRV accumulation cumulatively for all time points in plasma ([2]; 25 mg/kg, IN) | DRV accumulation cumulatively for all time points in the brain ([2]; 25 mg/kg, IN) | DRV concentration in liver (cumulative) ([2]; 25 mg/kg, IN) | DRV accumulation cumulatively for all time points in plasma ([2]; 25 mg/kg, IV) | DRV accumulation cumulatively for all time points in the brain ([2]; 25 mg/kg, IV) | DRV concentration in liver (cumulative) ([2]; 25 mg/kg, IV) | concentration at 1 h ([2]; 2.5 mg/kg, 2.5 mg/kg, IN, 1 h) | concentration at 1 h ([2]; 25 mg/kg, 25 mg/kg, IN, 1 h)
1 | CN(C)CCCN=C(N)c1ccc(C(N)=NCCCN(C)C)cc1 [DB213] | significantly high tissue distribution in the brain to plasma ratio |  |  |  |  |  |  |  |  |  |  |  |  |  |  |  |  |  | 
2 | CC(C)CN(C[C@@H](O)[C@H](Cc1ccccc1)NC(=O)O[C@H]1CO[C@H]2OCC[C@H]21)S(=O)(=O)c1ccc(N)cc1 [DRV, Darunavir] |  | ~3 fold | ~2 fold | 12.08 ± 2.91 ng/g and ~12 ng/g | 29.27 ± 4.17 ng/g | 19.91 ± 12.65 ng/g | 6.91 ± 1.69 ng/g | 118.39 ± 28.13 ng/g | 81.37 ± 22.04 ng/g | did not significantly increase | ~2 fold | 320.56 ± 40.04 ng/g | 19.74 ± 1.80 ng/g and ~20 ng/g | 833.83 ± 242.4 ng/g | 899.12 ± 136.93 ng/g | 12.84 ± 2.88 ng/g | 1085.18 ± 255.0 ng/g | ~5 ng/g | ~12 ng/g
